Our source for the GI50 and TGI values is PubChem BioAssay (NCI).

Test in all cases: NCI anticancer screen, dose series, 48 h
Experiment [1] deals with NCI-H226 lung.
Experiment [2] concerns UACC-257 melanoma.
Experiment [3] deals with PC-3 prostate.
Experiment [4] concerns BT-549 breast.
The test system of experiment [5] is OVCAR-5 ovarian.
The subject of experiment [6] is MDA-MB-435.
For experiment [7], the system named is SK-MEL-5 melanoma.

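Where inhibition never reached the appropriate level, the endpoint shown equals the highest concentration tested. Otherwise, values were interpolated linearly from a five-concentration, 48-hour dose response in 96-well plates. At the GI50, growth is halved. Definition used: TGI = concentration required for complete inhibition of growth.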 A value given as a limit tells only on which side of the number the result lay.

In the case of `CO/N=C(/C)c1cccc(Nc2cc(-c3ccccc3)nc3ccc(OC)cc23)c1`, the GI50 is 15.7 µM in experiment [1]; 18.4 µM in experiment [2]; 4680 nM in experiment [3]; 22.4 µM in experiment [4]; 15.3 µM in experiment [5]; 1990 nM in experiment [6]. Moreover, the GI50 in experiment [7] is 2.63 µM. The TGI came to 41 µM in experiment [1]; 43.2 µM in experiment [2]; 21.6 µM in experiment [3]; 46.6 µM in experiment [4]; 37.3 µM in experiment [5]; 6.12 µM in experiment [6]. This compound also came in with a TGI in experiment [7] of 8.13 µM.

Consider `COc1ccc2c3c(Nc4ccc(/C(C)=N/O)cc4)[nH]c4ccccc4c-3c(N=O)c2c1`, for which the GI50 in experiment [1] is 17 µM; in experiment [2], 3.08 µM; in experiment [3], 1520 nM; in experiment [4] it was 3.98 µM; in experiment [5] it was 3.02 µM; in experiment [6], 2770 nM. In addition, the GI50 in experiment [7] was 3.76 µM. The TGI in experiment [1] is 38.3 µM; in experiment [2], 8.56 µM; in experiment [3], 3.2 µM; in experiment [4], 23.1 µM; in experiment [5], 12.2 µM; in experiment [6], 11.9 µM. The TGI in experiment [7] was determined as 14.8 µM.

For `Cc1ncc([N+](=O)[O-])n1CCNS(=O)(=O)CCCn1ncnc1[N+](=O)[O-]`, the TGI in experiment [1], in experiment [2], in experiment [3], in experiment [4], in experiment [5] and in experiment [6] was greater than 100 µM in each case. This compound yielded a TGI in experiment [7] greater than 100 µM.

For the compound `O=C(CSC(c1ccccc1)c1ccccc1)N/N=C/c1ccco1`, the GI50 in experiment [1] is 3 µM; in experiment [3], 2030 nM; in experiment [4], 1.69 µM; in experiment [5], 1.97 µM; in experiment [6] it was 2010 nM; in experiment [7], 1.5 µM. Also, the TGI in experiment [1] came to 17.1 µM; in experiment [2], 0.935 µM; in experiment [3], 9 µM; in experiment [4], 2.78 µM; in experiment [5], 5.24 µM; in experiment [6], 11.5 µM. The TGI in experiment [7] stood at 6.41 µM.

Consider `O=C(NCc1ccc(S(=O)(=O)c2cc(F)cc(F)c2)cc1)c1ccc2nccn2c1`, for which the GI50 is greater than 46 µM in experiment [1]; greater than 59.1 µM in experiment [2]; 0.296 µM in experiment [4]; 0.331 µM in experiment [5]; 50.8 nM in experiment [6]; 2.22 µM in experiment [7]. Further, the TGI in experiment [1] was greater than 73.9 µM; in experiment [2], greater than 100 µM; in experiment [3], greater than 100 µM; in experiment [4], 12.1 µM; in experiment [5], greater than 100 µM; in experiment [6], greater than 100 µM. Moreover, the TGI in experiment [7] was greater than 100 µM.

As for `N#Cc1ccc(OC(=O)Nc2ccc(Cl)c(Cl)c2)cc1`, the GI50 in experiment [1] is 3.8 µM; in experiment [2], 4.07 µM; in experiment [3], 2870 nM; in experiment [4], 9.93 µM; in experiment [5], 5.79 µM; in experiment [6] it was 3170 nM. Moreover, the GI50 in experiment [7] was 6.03 µM. The TGI was greater than 100 µM in experiment [1]; 23.9 µM in experiment [2]; 21.6 µM in experiment [3]; 44.2 µM in experiment [4]; greater than 100 µM in experiment [5]; 22.4 µM in experiment [6]. Moreover, the TGI in experiment [7] worked out at 19.4 µM.

In the case of `Nc1nc(N)nc(CCCc2nc(N)nc(N)n2)n1`, the TGI in experiment [1], in experiment [2], in experiment [3], in experiment [4], in experiment [5] and in experiment [6] was greater than 100 µM in each case. This compound displayed a TGI in experiment [7] greater than 100 µM.

Take `Nc1ccccc1SC1CC(=O)N(c2ccc(Cl)c(Cl)c2)C1=O` (centres undefined): the GI50 was 14.6 µM in experiment [1]; 31.8 µM in experiment [2]; 8780 nM in experiment [3]; 62.2 µM in experiment [4]; greater than 100 µM in experiment [5]; 26100 nM in experiment [6]. Further, in experiment [7], the GI50 is 21.9 µM. Further, the TGI was 64.4 µM in experiment [1]; greater than 100 µM in experiment [2]; greater than 100 µM in experiment [3]; greater than 100 µM in experiment [4]; greater than 100 µM in experiment [5]; greater than 100 µM in experiment [6]. This compound also returned a TGI in experiment [7] greater than 100 µM.

In the case of `Cc1nn(C(=O)c2ccc(Cl)cc2)c2c1C(c1ccc(O)cc1)SC(N)=N2` (centres undefined), the TGI in experiment [1], in experiment [2], in experiment [3], in experiment [4], in experiment [5] and in experiment [6] was greater than 10 µM each time. Besides, the TGI in experiment [7] is greater than 10 µM.

As for `C[C@H]1CCC/C=C/[C@@H]2C[C@H](O)C[C@H]2[C@H](O)[C@@H](SCC(O)CO)CC(=O)O1` (some centres undefined), the GI50 in experiment [1] was 18.7 µM; in experiment [2], 6.74 µM; in experiment [3] it was 32800 nM; in experiment [4], 69.2 µM; in experiment [5], 41.1 µM; in experiment [6], 35500 nM. For the same compound, the GI50 in experiment [7] was 6.3 µM. The TGI was 44 µM in experiment [1]; greater than 100 µM in experiment [2]; greater than 100 µM in experiment [3]; greater than 100 µM in experiment [4]; greater than 100 µM in experiment [5]; greater than 100 µM in experiment [6]. The TGI in experiment [7] was 19.5 µM.

As to `CC[C@@]1(O)C(=O)OCc2c1cc1n(c2=O)Cc2c-1nc1cc(F)c(C)c3c1c2[C@@H](N)CC3`, the GI50 in experiment [1] is less than 0.01 µM; in experiment [2], less than 0.0151 µM; in experiment [3], 20 nM; in experiment [4], less than 0.01 µM; in experiment [5], 0.0201 µM; in experiment [6] it was 15 nM. Moreover, in experiment [7], the GI50 was less than 0.01 µM. Also, the TGI in experiment [1] is 0.0358 µM; in experiment [2], 0.981 µM; in experiment [3], greater than 100 µM; in experiment [4] it was 0.199 µM; in experiment [6], 1.48 µM; in experiment [7], 0.0203 µM.

Take `Cn1c(=O)c2c(ncn2CC(=O)Nc2ccc(-c3ccccc3)nn2)n(C)c1=O`: the GI50 in experiment [1] was greater than 100 µM; in experiment [2], greater than 100 µM; in experiment [3], greater than 100000 nM; in experiment [4], greater than 100 µM; in experiment [5], greater than 100 µM; in experiment [6], greater than 100000 nM. Besides, the GI50 in experiment [7] is 62.6 µM. The TGI in experiment [1], in experiment [2], in experiment [3], in experiment [4], in experiment [5] and in experiment [6] was greater than 100 µM throughout. The same compound had a TGI in experiment [7] greater than 100 µM.
